Patent publication US12655116B2, “Substituted isophthalic acid diamides” (Bayer Aktiengesellschaft, priority 2020, dated 2026)

Tests used:
[1] = tested on: ABUTH; experiment: Pre-emergence herbicidal action against ABUTH; assay type: in vivo, Abutilon theophrasti
Procedure, shortened: (§1)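 Herbicidal effect was assessed 3 weeks after treatment by visual comparison with untreated controls, 100% denoting dead plants. Aqueous WP or EC preparations had been applied at 600 to 800 l/ha with 0.2% wetting agent to the soil covering freshly sown seeds.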

[2] = tested on: ALOMY; experiment: Pre-emergence herbicidal action against ALOMY; assay type: in vivo, Alopecurus myosuroides; details: 80 g/ha, pre-emergence, scored visually after 3 weeks vs untreated controls (100% = plants have died, 0% = like control plants)
Procedure, shortened: as §1

[3] = tested on: AMARE; experiment: Pre-emergence herbicidal action against AMARE; assay type: in vivo, Amaranthus retroflexus
Procedure, shortened: as §1

[4] = tested on: MATIN; experiment: Pre-emergence herbicidal action against MATIN; assay type: in vivo, Matricaria inodora
Procedure, shortened: as §1

[5] = tested on: POLCO; experiment: Pre-emergence herbicidal action against POLCO; assay type: in vivo, Polygonum convolvulus; details: dosage 80 g/ha
Excerpt: Seeds of monocotyledonous and dicotyledonous weed plants and crop plants are laid out in sandy loam soil in wood-fiber pots and covered with soil. The compounds of the invention, formulated in the form of wettable powders (WP) or as emulsion concentrates (EC), are then applied to the surface of the covering soil in the form of an aqueous suspension or emulsion at a water application rate equivalent to 600 to 800 l/ha, with addition of 0.2% wetting agent. After the treatment, the pots are placed in a greenhouse and kept under good growth conditions for the trial plants. The damage to the test plants is scored visually after a test period of 3 weeks by comparison with untreated controls (herbicidal activity in percent (%): 100% activity=the plants have died, 0% activity=like control plants). […] The tables below illustrate, in an illustrative manner, the post-emergence herbicidal action of the compounds of the invention, the herbicidal activity being stated in percent.

[6] = tested on: SETVI; experiment: Pre-emergence herbicidal action against SETVI; assay type: in vivo, Setaria viridis
Procedure, shortened: as §1

[7] = tested on: VERPE; experiment: Pre-emergence herbicidal action against VERPE; assay type: in vivo, Veronica persica; details: dosage 80 g/ha
Procedure, shortened: as §1

[8] = tested on: VIOTR; experiment: Pre-emergence herbicidal action against VIOTR; assay type: in vivo, Viola tricolor
Procedure, shortened: as §1

[9] = tested on: ABUTH; experiment: Post-emergence herbicidal action against ABUTH; assay type: in vivo, Abutilon theophrasti; details: visual assessment about 3 weeks after treatment vs untreated controls
Procedure, shortened: (§2)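 Herbicidal effect was scored visually in percent after about 3 weeks in the greenhouse. Plants had been raised in sandy loam and treated post-emergence at the one-leaf stage with formulated compound at 600 to 800 l/ha water plus 0.2% wetting agent.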

[10] = tested on: ALOMY; experiment: Post-emergence herbicidal action against ALOMY; assay type: in vivo, Alopecurus myosuroides; details: dosage 20 g/ha, visual assessment about 3 weeks after treatment vs untreated controls
Procedure, shortened: as §2

[11] = tested on: AMARE; experiment: Post-emergence herbicidal action against AMARE; assay type: in vivo, Amaranthus retroflexus; details: 20 g/ha, visual assessment about 3 weeks after treatment, 100% = plants have died, 0% = like control plants
Procedure, shortened: as §2

[12] = tested on: ECHCG; experiment: Post-emergence herbicidal action against ECHCG; assay type: in vivo, Echinochloa crus-galli
Procedure, shortened: as §2

[13] = tested on: PHBPU; experiment: Post-emergence herbicidal action against PHBPU; assay type: in vivo, Pharbitis purpurea
Procedure, shortened: as §2

[14] = tested on: VERPE; experiment: Post-emergence herbicidal action against VERPE; assay type: in vivo, Veronica persica; details: Veronica persica, 504 h, 20 g/ha
Procedure, shortened: as §2

[15] = tested on: VIOTR; experiment: Post-emergence herbicidal action against VIOTR; assay type: in vivo, Viola tricolor; details: 20 g/ha
Procedure, shortened: as §2

[16] = tested on: AVEFA; experiment: Pre-emergence herbicidal action against AVEFA; assay type: in vivo, Avena fatua; details: 80 g/ha, pre-emergence
Procedure, shortened: as §1

[17] = tested on: ECHCG; experiment: Pre-emergence herbicidal action against ECHCG; assay type: in vivo, Echinochloa crus-galli; details: 80 g/ha
Procedure, shortened: as §1

[18] = tested on: DIGSA; experiment: Pre-emergence herbicidal action against DIGSA; assay type: in vivo, Digitaria sanguinalis
Procedure, shortened: as §1

[19] = tested on: SETVI; experiment: Post-emergence herbicidal action against SETVI; assay type: in vivo, Setaria viridis; details: dosage 20 g/ha
Procedure, shortened: as §2

[20] = tested on: DIGSA; experiment: Post-emergence herbicidal action against DIGSA; assay type: in vivo, Digitaria sanguinalis; details: 20 g/ha
Procedure, shortened: as §2

[21] = 80 g/ha, scored visually after 3 weeks vs untreated controls (100% = plants have died, 0% = like control plants)
[22] = 20 g/ha, scored visually after 3 weeks vs untreated controls, 100% = plants have died, 0% = like control plants

CCNC(=O)c1c(OC)ccc(C(=O)Nc2nnnn2C)c1Cl [Example 1-355]
90%: pest or weed control at 80 g/ha ([2]; Alopecurus myosuroides, 504 h) | pest or weed control at 80 g/ha ([6]; Setaria viridis, 504 h, dosage 80 g/ha) | pest or weed control at 20 g/ha ([12]; Echinochloa crus-galli, 504 h, dosage 20 g/ha) | pest or weed control at 20 g/ha [14]
100%: pest or weed control at 80 g/ha ([1]; Abutilon theophrasti, 504 h, 80 g/ha, scored visually after 3 weeks vs untreated controls (100% = plants have died, 0% = like control plants)) | pest or weed control at 20 g/ha ([3]; Amaranthus retroflexus, 504 h, 20 g/ha, scored visually after 3 weeks vs untreated controls, 100% = plants have died, 0% = like control plants) | pest or weed control at 80 g/ha ([3]; Amaranthus retroflexus, 504 h, 80 g/ha, scored visually after 3 weeks vs untreated controls, 100% = plants have died, 0% = like control plants) | pest or weed control at 80 g/ha ([4]; Tripleurospermum inodorum, 504 h, dosage 80 g/ha) | pest or weed control at 80 g/ha ([7]; Veronica persica, 504 h) | pest or weed control at 80 g/ha ([8]; Viola tricolor, 504 h, dosage 80 g/ha) | pest or weed control at 20 g/ha ([9]; Abutilon theophrasti, 504 h, dosage 20 g/ha) | pest or weed control at 20 g/ha ([11]; Amaranthus retroflexus, 504 h) | pest or weed control at 20 g/ha ([15]; Viola tricolor, 504 h)
80%: pest or weed control at 20 g/ha ([4]; Tripleurospermum inodorum, 504 h, dosage 20 g/ha) | pest or weed control at 80 g/ha ([5]; Fallopia convolvulus, 504 h) | pest or weed control at 5 g/ha ([9]; Abutilon theophrasti, 504 h, dosage 5 g/ha) | pest or weed control at 20 g/ha ([10]; Alopecurus myosuroides, 504 h) | pest or weed control at 20 g/ha ([13]; Ipomoea purpurea, 504 h, dosage 20 g/ha)

Cn1nnnc1NC(=O)c1ccc(Br)c(C(=O)NCC2CC2)c1Cl [Example 1-180]
100%: Pre-emergence action against ABUTH (herbicidal activity) [1, 21] | Pre-emergence action against ALOMY (herbicidal activity) [2] | Pre-emergence action against AMARE in % [3, 22] | Pre-emergence action against AMARE in % [3, 21] | Pre-emergence action against ECHCG in % [17] | Pre-emergence action against MATIN in % ([4]; dosage 80 g/ha) | Pre-emergence action against POLCO in % [5] | Pre-emergence action against VIOTR in % ([8]; dosage 80 g/ha) | Pre-emergence action against DIGSA in % ([18]; dosage 20 g/ha) | Pre-emergence action against DIGSA in % ([18]; dosage 80 g/ha)
80%: Pre-emergence action against AVEFA in % [16] | Pre-emergence action against VERPE in % [7] | Pre-emergence action against VIOTR in % ([8]; dosage 20 g/ha)
90%: Pre-emergence action against ABUTH (herbicidal activity in percent) ([1]; dosage 20 g/ha, scored visually after 3 weeks vs untreated controls, 100% = plants have died, 0% = like control plants) | Pre-emergence action against MATIN in % ([4]; dosage 20 g/ha) | Pre-emergence action against SETVI in % ([6]; dosage 80 g/ha) | Post-emergence action against PHBPU in % ([13]; dosage 5 g/ha) | Post-emergence action against PHBPU in % ([13]; dosage 20 g/ha) | Post-emergence action against VIOTR in % [15]

CCNC(=O)c1c(C(F)F)ccc(C(=O)Nc2nnc(C)o2)c1Br [Example 6-165]
100%: Pre-emergence action against ABUTH (herbicidal activity) [1, 21] | Pre-emergence action against AMARE in % [3, 22] | Pre-emergence action against AMARE in % [3, 21] | Pre-emergence action against ECHCG in % [17] | Pre-emergence action against MATIN in % ([4]; dosage 80 g/ha) | Pre-emergence action against SETVI in % ([6]; dosage 80 g/ha) | Pre-emergence action against DIGSA in % ([18]; dosage 80 g/ha) | Post-emergence action against ECHCG in % ([12]; dosage 20 g/ha)
90%: Pre-emergence action against SETVI in % ([6]; dosage 20 g/ha) | Pre-emergence action against VIOTR in % ([8]; dosage 80 g/ha) | Pre-emergence action against DIGSA in % ([18]; dosage 20 g/ha) | Post-emergence action against ABUTH in % ([9]; dosage 20 g/ha) | Post-emergence action against ECHCG in % ([12]; dosage 5 g/ha) | Post-emergence action against DIGSA [20]
80%: Pre-emergence action against ALOMY (herbicidal activity) [2] | Pre-emergence action against MATIN in % ([4]; dosage 20 g/ha) | Pre-emergence action against POLCO in % [5] | Pre-emergence action against VIOTR in % ([8]; dosage 20 g/ha) | Post-emergence action against ALOMY in % [10] | Post-emergence action at 20 g/ha against AMARE in % [11] | Post-emergence action against SETVI in % [19] | Post-emergence action against VIOTR in % [15]
